The test system of series [1] is Cell membrane. Briefly: Induction of membrane depolarization in Salmonella enterica serovar typhimurium SL1344 at 0.5 times MIC after 60 mins by DiOC23 dye based based flow cytometry relative to control. The conditions noted are these: Salmonella enterica subsp. enterica serovar Typhimurium. A general note: In flow cytometry, cells or beads pass a laser one at a time.

Series [2] concerns Salmonella typhimurium. Briefly: Bactericidal activity against Salmonella enterica serovar typhimurium SL1344 incubated for 90 mins by serial dilution assay. Type of series: functional, Salmonella enterica subsp. enterica serovar Typhimurium.
The subject of series [3] is Staphylococcus aureus. Briefly: Induction of morphological changes in Staphylococcus aureus ATCC 29213 at 0.5 to 2 times MIC incubated for 90 mins by Helium ion microscopy. Type of series: functional, organism-based.
Series [4] has as its system Cell membrane. Briefly: Induction of membrane depolarization in Escherichia coli ATCC 25922 at 0.25 to 0.5 times MIC after 60 mins by DiOC23 dye based based flow cytometry. It counts as subcellular.
Series [5] concerns Escherichia coli. The series can be described thus: Bactericidal activity against Escherichia coli BAA3051 incubated for 90 mins by serial dilution assay. It counts as functional.
Series [6] relates to Salmonella typhimurium. Briefly: Antibacterial activity against Salmonella enterica serovar typhimurium SL1344 assessed as inhibition of bacterial growth incubated for 90 mins by serial dilution assay. Type of series: functional, Salmonella enterica subsp. enterica serovar Typhimurium.
For series [7], the system named is Cell membrane. Briefly: Induction of outer membrane permeabilization in Escherichia coli BAA3051 assessed as increase in NPN fluorescence intensity incubated for 15 mins by NPN-dye based fluorescence analysis.
Series [8] relates to Cell membrane. The series can be described thus: Induction of inner membrane damage in Escherichia coli ATCC 25922 assessed disruption of membrane integrity at 0.5 to 256 ug/ml and measured after 90 mins by propidium iodide staining based flow cytometry. It counts as subcellular. The conditions noted are these: dose 0.5-256 µg/ml.
Series [9] has as its system Enterococcus faecalis. The series can be described thus: Antibacterial activity against Enterococcus faecalis ATCC 29212 assessed as inhibition of bacterial growth incubated for 90 mins by serial dilution assay. It counts as functional.
Series [10] deals with Staphylococcus aureus. Briefly: Antibacterial activity against Methicillin resistant Staphylococcus aureus ATCC 33591 assessed as inhibition of bacterial growth incubated for 90 mins by serial dilution assay. It counts as functional.
In series [11] the test system is Cell membrane. The series can be described thus: Induction of membrane depolarization in Escherichia coli ATCC 25922 at 0.5 times MIC after 60 mins by DiOC23 dye based based flow cytometry relative to control.
Series [12] concerns Staphylococcus aureus. Briefly: Antibacterial activity against Staphylococcus aureus ATCC 29213 assessed as inhibition of bacterial growth incubated for 90 mins by serial dilution assay. Type of series: functional.
The subject of series [13] is Escherichia coli. The series can be described thus: Antibacterial activity against Escherichia coli BAA3051 assessed as inhibition of bacterial growth incubated for 90 mins by serial dilution assay. Type of series: functional.
The test system of series [14] is Cell membrane. Briefly: Induction of membrane depolarization in Staphylococcus aureus ATCC 29213 at 0.5 times MIC after 60 mins by DiOC23 dye based based flow cytometry relative to control. Type of series: subcellular.
The subject of series [15] is Cell membrane. The series can be described thus: Induction of outer membrane permeabilization in Escherichia coli ATCC 25922 assessed as increase in NPN fluorescence intensity incubated for 15 mins by NPN-dye based fluorescence analysis. Type of series: subcellular.
In series [16] the test system is Cell membrane. Briefly: Induction of outer membrane permeabilization in Salmonella enterica serovar typhimurium SL1344 assessed as increase in NPN fluorescence intensity incubated for 15 mins by NPN-dye based fluorescence analysis. Type of series: subcellular. The conditions noted are these: Salmonella enterica subsp. enterica serovar Typhimurium.
Series [17] concerns Cell membrane. The series can be described thus: Induction of membrane depolarization in Enterococcus faecalis ATCC 29212 at 0.25 times MIC after 60 mins by DiOC23 dye based based flow cytometry. Type of series: subcellular.
For series [18], the system named is Escherichia coli. The series can be described thus: Bactericidal activity against Escherichia coli ATCC 25922 incubated for 90 mins by serial dilution assay. Type of series: functional.
The test system of series [19] is Escherichia coli. Briefly: Antibacterial activity against Escherichia coli ATCC 25922 assessed as inhibition of bacterial growth incubated for 90 mins by serial dilution assay. It counts as functional.
Series [20] relates to Cell membrane. Briefly: Induction of membrane depolarization in Salmonella enterica serovar typhimurium SL1344 at 0.25 to 0.5 times MIC after 60 mins by DiOC23 dye based based flow cytometry. It counts as subcellular. Particulars: Salmonella enterica subsp. enterica serovar Typhimurium.
In series [21] the test system is HEK293. Briefly: Cytotoxicity against human HEK293 cells assessed as decrease in live cells at 250 ug/ml incubated for 2 hrs by MTS assay. It counts as toxicity, cell-based. The conditions noted are these: hek293, 2 h, dose 250 µg/ml.
The subject of series [22] is Cell membrane. The series can be described thus: Induction of membrane depolarization in Enterococcus faecalis ATCC 29212 at 0.5 times MIC after 60 mins by DiOC23 dye based based flow cytometry relative to control.
Series [23] deals with HEK293. Briefly: Cytotoxicity against human HEK293 cells assessed as decrease in live cells upto 125 ug/ml incubated for 2 hrs by MTS assay. It counts as toxicity, cell-based. The conditions noted are these: hek293, 2 h, dose < 125 µg/ml. (Tetrazolium dyes change colour on reduction, which living cells bring about.)
In series [24] the test system is Staphylococcus aureus. The series can be described thus: Bactericidal activity against Staphylococcus aureus ATCC 29213 incubated for 90 mins by serial dilution assay. Type of series: functional.
Series [25] relates to Cell membrane. Briefly: Induction of membrane depolarization in Staphylococcus aureus ATCC 29213 at 0.25 times MIC after 60 mins by DiOC23 dye based based flow cytometry. Type of series: subcellular.
For series [26], the system named is Staphylococcus aureus. Briefly: Bactericidal activity against Methicillin resistant Staphylococcus aureus ATCC 33591 incubated for 90 mins by serial dilution assay. Type of series: functional.
For series [27], the system named is Enterococcus faecalis. The series can be described thus: Bactericidal activity against Enterococcus faecalis ATCC 29212 incubated for 90 mins by serial dilution assay. Type of series: functional.
Series [28] deals with HEK293. Briefly: Cytotoxicity against human HEK293 cells assessed as increase in LDH release at 31.25 ug/ml incubated for 2 hrs by LDH assay. It counts as toxicity, cell-based. Particulars: hek293, 2 h, dose 31.25 µg/ml. On the technique in general: Release of lactate dehydrogenase indicates damage to the cell membrane.
Series [29] has as its system Cell membrane. Briefly: Induction of inner membrane damage in Staphylococcus aureus ATCC 29213 assessed disruption of membrane integrity at 0.5 to 256 ug/ml and measured after 90 mins by propidium iodide staining based flow cytometry. It counts as subcellular. The conditions noted are these: dose 0.5-256 µg/ml.
In series [30] the test system is HEK293. Briefly: Cytotoxicity against human HEK293 cells assessed as decrease in live cells at 15.6 ug/ml incubated for 2 hrs by MTS assay. The conditions noted are these: hek293, 2 h, dose 15.6 µg/ml. Type of series: toxicity, cell-based.
Series [31] has as its system Escherichia coli. The series can be described thus: Induction of morphological changes in Escherichia coli ATCC 25922 at 0.5 times MIC incubated for 90 mins by Helium ion microscopy. It counts as functional, organism-based.
Series [32] concerns Escherichia coli. Briefly: Induction of morphological changes in Escherichia coli ATCC 25922 assessed as leakage in intracellular contents at 0.5 times MIC incubated for 90 mins by Helium ion microscopy. It counts as functional, organism-based.
For series [33], the system named is Staphylococcus aureus. Briefly: Induction of morphological changes in Staphylococcus aureus ATCC 29213 incubated for 90 mins by Helium ion microscopy. Type of series: functional, organism-based.
Series [34] deals with Lipid bilayer. Briefly: Induction of membrane disruption in Gram-negative bacterial cell membrane mimic POPE:POPG(7:3) large unilamellar vesicle assessed as carboxyfluorescein leakage by fluorescence analysis.
Series [35] has as its system Escherichia coli. Briefly: Induction of morphological changes in Escherichia coli ATCC 25922 assessed as membrane collapse at 0.5 to 2 times MIC incubated for 90 mins by Helium ion microscopy. It counts as functional, organism-based.
Series [36] relates to Escherichia coli. Briefly: Induction of morphological changes in Escherichia coli ATCC 25922 assessed as leakage in intracellular contents at 0.5 to 2 times MIC incubated for 90 mins by Helium ion microscopy. It counts as functional, organism-based.
The mark [37] stands for this setting: Salmonella enterica subsp. enterica serovar Typhimurium.

For three compounds, Activity, MBC and MIC results are on record in ChEMBL document CHEMBL5131468, “Systematic comparison of activity and mechanism of antimicrobial peptides against nosocomial pathogens” (Eur J Med Chem, 2022).

Values after ≈ are worked out from the molar mass of the structure shown. Active and inactive are the calls of the source. Peptide text beside a SMILES is read from it.

By MBC is commonly meant the smallest concentration meeting the test's criterion for killing. Read a low MBC as more potent killing. Usually MIC stands for the least concentration at which growth counts as inhibited. Regarding `CC[C@H](C)[C@H](NC(=O)[C@H](CO)NC(=O)[C@H](CCCCN)NC(=O)[C@H](Cc1c[nH]c2ccccc12)NC(=O)[C@H](CC(C)C)NC(=O)[C@H](C)N)C(=O)N[C@@H](CC(C)C)C(=O)N[C@@H](CCCCN)C(=O)N[C@@H](CC(N)=O)C(=O)N[C@H](C(=O)NCC(=O)N[C@@H](CCCCN)C(=O)N[C@@H](C)C(=O)N[C@@H](C)C(=O)NCC(=O)N[C@@H](CCCCN)C(=O)N[C@@H](C)C(=O)N[C@H](C(=O)N[C@@H](CC(C)C)C(=O)O)C(C)C)C(C)C` (H-ALWKSILKNVGKAAGKAVL-OH), the Activity was 40% in series [1]; 30% in [4]; 40% in series [11]; 40% in [14]; 30% in series [20]; “Toxic” in series [21]. For the same compound, the Activity in series [22] was 40%; in [23], “Toxic”. The minimum bactericidal concentration (MBC) in [2] (SL1344, 1.5 h) is 250 µg/mL (≈ 127 µM); in series [5] (BAA3051, 1.5 h) it was 31.3 µg/mL (≈ 15.9 µM); in series [18] (ATCC 25922, 1.5 h) it was 31.3 µg/mL (≈ 15.9 µM); in series [24] (ATCC 29213, 1.5 h) it was more than 125 µg/mL; in [26] (ATCC 33591, 1.5 h), more than 250 µg/mL; in [27] (ATCC 29212, 1.5 h), 250 µg/mL (≈ 127 µM). For the same compound, the outcome in [3], in [7], in series [8], in series [15], in series [16] and in [17] was Active. Moreover, the outcome in [25] was Active. Moreover, the minimal inhibitory concentration (MIC) is 250 µg/mL (≈ 127 µM) in series [6] (SL1344, 1.5 h); 250 µg/mL (≈ 127 µM) in series [9] (ATCC 29212, 1.5 h); more than 125 µg/mL in [10] (ATCC 33591, 1.5 h); 62.5 µg/mL (≈ 31.8 µM) in [12] (ATCC 29213, 1.5 h); 31.3 µg/mL (≈ 15.9 µM) in [13] (BAA3051, 1.5 h); 31.3 µg/mL (≈ 15.9 µM) in [19] (ATCC 25922, 1.5 h).

Consider `CC[C@H](C)[C@H](NC(=O)[C@H](CCCCN)NC(=O)[C@@H](NC(=O)[C@H](Cc1ccccc1)NC(=O)[C@H](C)NC(=O)[C@H](CCCCN)NC(=O)CNC(=O)[C@H](Cc1ccccc1)NC(=O)[C@H](CCCCN)NC(=O)[C@H](CCCCN)NC(=O)[C@H](C)NC(=O)[C@H](CCCCN)NC(=O)[C@H](CCCCN)NC(=O)[C@H](CC(C)C)NC(=O)[C@H](Cc1ccccc1)NC(=O)[C@@H](N)CCCCN)C(C)C)C(=O)N[C@@H](CC(C)C)C(=O)O` (H-KFLKKAKKFGKAFVKIL-OH), for which the Activity in [1] was 40%; in series [28], “Toxic”; in series [4], 30%; in [11], 40%; in series [30] it was “Toxic”; in [14], 40%. The Activity in series [34] was found to be 20%; in series [20] it was 30%; in [22], 40%. In addition, the minimal bactericidal concentration (MBC) is 7.8 µg/mL (≈ 3.91 µM) in series [2] (SL1344, 1.5 h); 7.8 µg/mL (≈ 3.91 µM) in [5] (BAA3051, 1.5 h); 15.6 µg/mL (≈ 7.82 µM) in series [18] (ATCC 25922, 1.5 h); 31.3 µg/mL (≈ 15.7 µM) in series [24] (ATCC 29213, 1.5 h); more than 125 µg/mL in series [26] (ATCC 33591, 1.5 h); 125 µg/mL (≈ 62.7 µM) in [27] (ATCC 29212, 1.5 h). The result in series [3], in series [29], in series [7], in series [8], in [31] and in series [15] was Active. Besides, the outcome in series [16], in series [32], in series [33], in series [35] and in series [36] was Active. Further, the minimum inhibitory concentration (MIC) in series [6] (SL1344, 1.5 h) was 7.8 µg/mL (≈ 3.91 µM); in [9] (ATCC 29212, 1.5 h) it was 31.3 µg/mL (≈ 15.7 µM); in [10] (ATCC 33591, 1.5 h), more than 125 µg/mL; in series [12] (ATCC 29213, 1.5 h), 15.6 µg/mL (≈ 7.82 µM); in series [13] (BAA3051, 1.5 h), 7.8 µg/mL (≈ 3.91 µM); in series [19] (ATCC 25922, 1.5 h), 15.6 µg/mL (≈ 7.82 µM).

As to GENTAMICIN, the minimum bactericidal concentration (MBC) in series [2] (setting [37]) amounted to 12.5 µg/mL; in series [5] it was 1.9 µg/mL; in series [18] it was 6.25 µg/mL; in [24], 6.25 µg/mL; in series [26], 62.5 µg/mL; in series [27] it was 31.3 µg/mL. The minimal inhibitory concentration (MIC) in series [6] (setting [37]) is 12.5 µg/mL; in [9], 3.9 µg/mL; in series [10], 7.8 µg/mL; in series [12] it was 3.9 µg/mL; in [13] it was 1.9 µg/mL; in series [19], 0.9 µg/mL.
